# Where two headings read alike, the source gives them in different places.
# B1: RasGRF1 amino acids 714-1244: C-terminal prey-containing sequence of RasGRF1 (protein, UniProt Q13972 714-1244, looked up, fragment)
# chain: FASGQNNKLLYGEPPKSPRATRKFSSPPPLSITKTSSPSRRRKLSLNIPIITGGKALDLAALSCNSNGYTSMYSAMSPFSKATLDTSKLYVSSSFTNKIPDEGDTTPEKPEDPSALSKQSSEVSMREESDIDQNQSDDGDTETSPTKSPTTPKSVKNKNSSEFPLFSYNNGVVMTSCRELDNNRSALSAASAFAIATAGANEGTPNKEKYRRMSLASAGFPPDQRNGDKEFVIRRAATNRVLNVLRHWVSKHSQDFETNDELKCKVIGFLEEVMHDPELLTQERKAAANIIRTLTQEDPGDNQITLEEITQMAEGVKAEPFENHSALEIAEQLTLLDHLVFKKIPYEEFFGQGWMKLEKNERTPYIMKTTKHFNDISNLIASEIIRNEDINARVSAIEKWVAVADICRCLHNYNAVLEITSSMNRSAIFRLKKTWLKVSKQTKALIDKLQKLVSSEGRFKNLREALKNCDPPCVPYLGMYLTDLAFIEEGTPNYTEDGLVNFSKMRMISHIIREIRQFQQTAYKIEHQAKV
# B2: RasGRF1 amino acids 1-720: N-terminal portion of RasGRF1, which contains multiple functional domains (protein, UniProt Q13972 1-720, looked up, fragment)
# chain: MQKGIRLNDGHVASLGLLARKDGTRKGYLSKRSSDNTKWQTKWFALLQNLLFYFESDSSSRPSGLYLLEGCVCDRAPSPKPALSAKEPLEKQHYFTVNFSHENQKALELRTEDAKDCDEWVAAIAHASYRTLATEHEALMQKYLHLLQIVETEKTVAKQLRQQIEDGEIEIERLKAEITSLLKDNERIQSTQTVAPNDEDSDIKKIKKVQSFLRGWLCRRKWKTIIQDYIRSPHADSMRKRNQVVFSMLEAEAEYVQQLHILVNNFLRPLRMAASSKKPPITHDDVSSIFLNSETIMFLHQIFYQGLKARISSWPTLVLADLFDILLPMLNIYQEFVRNHQYSLQILAHCKQNRDFDKLLKHYEAKPDCEERTLETFLTYPMFQIPRYILTLHELLAHTPHEHVERNSLDYAKSKLEELSRIMHDEVSETENIRKNLAIERMIIEGCEILLDTSQTFVRQGSLIQVPMSEKGKITRGRLGSLSLKKEGERQCFLFSKHLIICTRGSGGKLHLTKNGVISLIDCTLLEEPESTEEEAKGSGQDIDHLDFKIGVEPKDSPPFTVILVASSRQEKAAWTSDISQCVDNIRCNGLMMNAFEENSKVTVPQMIKRTREGTREAEMSRSDASLYCDDVDIRFSKTMNSCKVLQIRYASVERLLERLTDLRFLSIDFLNTFLHSYRVFTTAIVVLDKLITIYKKPISAIPARWLRSLELLFASGQNN
# B3: RasGRF1 amino acids 835-913: shorter peptide of the RasGRF1-specific sequence (protein, UniProt Q13972 835-913, looked up, fragment)
# chain: EVSMREESDIDQNQSDDGDTETSPTKSPTTPKSVKNKNSSEFPLFSYNNGVVMTSCRELDNNRSALSAASAFAIATAGA
# B4: RasGRF1 amino acids 714-841: shorter peptide of the RasGRF1-specific sequence (protein, UniProt Q13972 714-841, looked up, fragment)
# chain: FASGQNNKLLYGEPPKSPRATRKFSSPPPLSITKTSSPSRRRKLSLNIPIITGGKALDLAALSCNSNGYTSMYSAMSPFSKATLDTSKLYVSSSFTNKIPDEGDTTPEKPEDPSALSKQSSEVSMREE
# Experiments:
# [1] = target: T1, NR2A (Rattus norvegicus, UniProt Q00959); conditions: 3 μM; heterologous expression systems; cited from earlier work
# T1 construct: host or cells: heterologous expression systems (not specified)
# [2] = tested on: NMDA receptor; assay: whole-cell recordings of NMDAR-mediated currents in cultured hippocampal neurons; assay type: cell-based, rat
# [3] = tested on: ERK; assay: phospho-ERK immunocytochemistry in cultured hippocampal neurons; assay type: cell-based, rat
# Description: Neurons from 18 day rat embryos were dissociated using trypsin and plated on coverslips coated with poly-L-ysine in minimal essential medium (MEM) with 10% NU serum (BD Biosciences, Le Pont de Claix, France) at densities of 30,000 cells/cm^2 as described (Brewer, G. J. (1995) J. Neurosci. Res. 42, 674-683). On days 7 and 11 of culture incubation, half of the medium was changed to MEM with 2% B27 supplement (Invitrogen).
# Cells were transfected with cDNA for EGFP fusion proteins (LipofectAMINE 2000; Invitrogen) or by pseudoviral infection using a Sindbis expression system (Invitrogen). Neurons were incubated with cDNA and LipofectAMINE for 2 hr, rinsed, and incubated with culture media (MEM with 2% of B27 supplement) 17 hr prior to the experiment. For viral delivery, neuronal cultures were incubated 30 min with pseudoviral constructs diluted 200-500× in culture media. Cultures were rinsed and incubated in media for 15 hr. 0.1% to 1.5% of neurons were fluorescent after expressing LipofectAMINE-delivered constructs while Sindbis infection yielded 1%-10% transfection efficiency. Most of the experiments were performed on 12-14 days in vitro (div) cultures unless otherwise indicated.
# Three hours before stimulation, TTX (1 μM), CNQX (40 μM), APV (100 μM), and nimodipine (5 μM) were added to neurons. For stimulation, coverslips with neurons were transferred into the following solutions.
# (1) 100 μM NMDA, 10 μM glycine, 1 μM TTX, 40 μM CNQX, 5 μM nimodipine dissolved in culture media and incubated for 3 min. […]
# After stimulation, neurons were fixed with 4% formaldehyde and labeled with rabbit anti-phospho-p44/42 ERK antibody (Cell Signaling) and with mouse anti-MAP2 antibody (Sternberger Monoclonals). Cy3-conjugated goat anti-rabbit IgG and Cy5-conjugated goat antimouse IgG (Jackson Immunoresearch Laboratories, West Grove, Pa.) were secondary antibodies. NMDA and all antagonists were from Tocris Neuramin. BDNF was from Calbiochem. Images were acquired with an Olympus Fluoview-500 confocal microscope (40×; 1.0 NA) and quantified using Olympus Fluoview software. In each experiment, the pERK fluorescence of the cell soma was measured for 25 neurons taken from consecutive fields. Phospho-ERK fluorescence data were normalized to the values obtained in nontransfected cells after NMDA stimulation. The background fluorescence (mean fluorescence of nonstimulated neurons) was subtracted prior to normalization.
# [4] = tested on: NMDA receptors; conditions: cited from earlier work
# [5] = target: T2, NR2B (Rattus norvegicus, UniProt P35439+Q00960); conditions: 3 μM; heterologous expression systems; cited from earlier work
# T2 construct: host or cells: heterologous expression systems (not specified)
# [6] = tested on: SynGAP; assay: phosphorylation of SynGAP in cultured hippocampal neurons; assay type: cell-based, rat; conditions: control experiments
# [7] = tested on: CREB transcription factor; assay: phosphorylation of CREB in cultured hippocampal neurons; assay type: cell-based, rat; conditions: control experiments
# [8] = target: T3, full-length NR2B (Rattus norvegicus, UniProt Q00960); assay: in vitro binding of in vitro translated HA-tagged RasGRF1 fragments to full-length NR2B (co-immunoprecipitation); conditions: epitope-tagged RasGRF1 fragments
# T3 construct: In vitro translated full-length NR2B and HA-tagged RasGRF1 fragments were co-immunoprecipitated with anti-HA antibody; made in house; host or cells: cell-free in vitro translation (35S-labelled)
# Source text: For in vitro translation, fragments of rat NR2B and rat RasGRF1 were made by PCR with 5′-primers containing AU1- and HA-tag encoding sequences; amplified sequences were subcloned into pcDNA3.1. For 293T transfection, the following cDNAs were used: mouse RasGRF1 in pcDNA3, GFP-rat NR2B, GFP rat NR2A in pcDNA1.1, and rat NR1 in pEGFP-C1 (Clontech). EGFP fusion constructs were made by subcloning cDNA fragments encoding different portions of NR2B and RasGRF1 into pEGFP-C1 (Clontech). EGFP fusion constructs were transferred from pEGFP into pSinRep5 and used for preparation of the Sindbis pseudovirus gene transfer system according to the manufacturer's protocol (Invitrogen, Carlsbad, Calif.).
# For in vitro binding experiments, equimolar amounts of in vitro translated ^35S-labeled proteins (calculated from radioactivity of the excised protein band and cysteine content in the specific fragment) were incubated with a 3-fold molar excess of translated RasGRF1 for 30 min at 30° C., diluted with RIPA buffer, and immunoprecipitated with anti-HA-agarose (Santa Cruz). In competition experiments, RasGRF1 and NR2B were immunoprecipitated for 2 hr at 4° C. from solubilized rat brain microsomes in the presence of 10 μM NusA, 10 μM NusA-RasGRF1-BD, or 5 μM NusA-NR2B-BD.
# T3 sequence (Q00960 27-1482 E1256K/V1430S/T1431A): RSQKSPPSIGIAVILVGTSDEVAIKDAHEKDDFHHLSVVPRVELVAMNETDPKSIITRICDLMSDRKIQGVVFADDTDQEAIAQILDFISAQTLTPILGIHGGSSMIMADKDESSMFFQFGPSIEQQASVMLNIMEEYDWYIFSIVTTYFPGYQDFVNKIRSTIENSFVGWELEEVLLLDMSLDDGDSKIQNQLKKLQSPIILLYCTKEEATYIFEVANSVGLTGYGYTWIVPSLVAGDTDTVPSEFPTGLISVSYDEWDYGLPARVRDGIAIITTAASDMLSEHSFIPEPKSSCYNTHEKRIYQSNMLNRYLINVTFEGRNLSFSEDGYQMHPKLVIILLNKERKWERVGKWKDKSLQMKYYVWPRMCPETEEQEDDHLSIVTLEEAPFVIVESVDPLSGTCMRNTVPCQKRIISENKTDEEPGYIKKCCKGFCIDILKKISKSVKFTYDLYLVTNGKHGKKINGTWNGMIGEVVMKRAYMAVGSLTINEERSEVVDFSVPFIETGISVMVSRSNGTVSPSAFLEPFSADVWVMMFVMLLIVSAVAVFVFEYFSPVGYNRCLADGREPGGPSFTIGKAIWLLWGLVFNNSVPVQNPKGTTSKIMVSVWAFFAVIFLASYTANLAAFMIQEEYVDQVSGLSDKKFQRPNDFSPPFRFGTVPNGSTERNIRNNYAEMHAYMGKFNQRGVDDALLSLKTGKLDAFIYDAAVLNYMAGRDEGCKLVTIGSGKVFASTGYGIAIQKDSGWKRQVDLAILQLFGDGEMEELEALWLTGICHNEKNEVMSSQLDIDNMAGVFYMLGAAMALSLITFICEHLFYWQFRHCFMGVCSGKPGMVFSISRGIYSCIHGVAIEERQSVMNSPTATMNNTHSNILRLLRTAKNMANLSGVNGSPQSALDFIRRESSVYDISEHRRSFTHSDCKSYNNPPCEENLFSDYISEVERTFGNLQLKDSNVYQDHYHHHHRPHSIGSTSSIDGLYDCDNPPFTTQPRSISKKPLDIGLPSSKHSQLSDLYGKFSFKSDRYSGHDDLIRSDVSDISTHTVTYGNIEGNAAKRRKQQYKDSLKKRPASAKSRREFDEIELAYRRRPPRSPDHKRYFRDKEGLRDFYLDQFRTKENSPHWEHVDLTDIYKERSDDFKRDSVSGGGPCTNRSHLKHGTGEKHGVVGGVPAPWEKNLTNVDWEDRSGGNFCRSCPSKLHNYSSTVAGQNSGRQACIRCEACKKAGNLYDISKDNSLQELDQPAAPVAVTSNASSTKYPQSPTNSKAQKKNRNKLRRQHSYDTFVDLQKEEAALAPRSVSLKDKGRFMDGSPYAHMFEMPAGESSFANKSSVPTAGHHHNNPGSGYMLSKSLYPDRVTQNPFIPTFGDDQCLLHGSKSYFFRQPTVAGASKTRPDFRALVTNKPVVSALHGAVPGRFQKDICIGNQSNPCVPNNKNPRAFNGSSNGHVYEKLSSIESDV
# T1 sequence (Q00959 23-1464): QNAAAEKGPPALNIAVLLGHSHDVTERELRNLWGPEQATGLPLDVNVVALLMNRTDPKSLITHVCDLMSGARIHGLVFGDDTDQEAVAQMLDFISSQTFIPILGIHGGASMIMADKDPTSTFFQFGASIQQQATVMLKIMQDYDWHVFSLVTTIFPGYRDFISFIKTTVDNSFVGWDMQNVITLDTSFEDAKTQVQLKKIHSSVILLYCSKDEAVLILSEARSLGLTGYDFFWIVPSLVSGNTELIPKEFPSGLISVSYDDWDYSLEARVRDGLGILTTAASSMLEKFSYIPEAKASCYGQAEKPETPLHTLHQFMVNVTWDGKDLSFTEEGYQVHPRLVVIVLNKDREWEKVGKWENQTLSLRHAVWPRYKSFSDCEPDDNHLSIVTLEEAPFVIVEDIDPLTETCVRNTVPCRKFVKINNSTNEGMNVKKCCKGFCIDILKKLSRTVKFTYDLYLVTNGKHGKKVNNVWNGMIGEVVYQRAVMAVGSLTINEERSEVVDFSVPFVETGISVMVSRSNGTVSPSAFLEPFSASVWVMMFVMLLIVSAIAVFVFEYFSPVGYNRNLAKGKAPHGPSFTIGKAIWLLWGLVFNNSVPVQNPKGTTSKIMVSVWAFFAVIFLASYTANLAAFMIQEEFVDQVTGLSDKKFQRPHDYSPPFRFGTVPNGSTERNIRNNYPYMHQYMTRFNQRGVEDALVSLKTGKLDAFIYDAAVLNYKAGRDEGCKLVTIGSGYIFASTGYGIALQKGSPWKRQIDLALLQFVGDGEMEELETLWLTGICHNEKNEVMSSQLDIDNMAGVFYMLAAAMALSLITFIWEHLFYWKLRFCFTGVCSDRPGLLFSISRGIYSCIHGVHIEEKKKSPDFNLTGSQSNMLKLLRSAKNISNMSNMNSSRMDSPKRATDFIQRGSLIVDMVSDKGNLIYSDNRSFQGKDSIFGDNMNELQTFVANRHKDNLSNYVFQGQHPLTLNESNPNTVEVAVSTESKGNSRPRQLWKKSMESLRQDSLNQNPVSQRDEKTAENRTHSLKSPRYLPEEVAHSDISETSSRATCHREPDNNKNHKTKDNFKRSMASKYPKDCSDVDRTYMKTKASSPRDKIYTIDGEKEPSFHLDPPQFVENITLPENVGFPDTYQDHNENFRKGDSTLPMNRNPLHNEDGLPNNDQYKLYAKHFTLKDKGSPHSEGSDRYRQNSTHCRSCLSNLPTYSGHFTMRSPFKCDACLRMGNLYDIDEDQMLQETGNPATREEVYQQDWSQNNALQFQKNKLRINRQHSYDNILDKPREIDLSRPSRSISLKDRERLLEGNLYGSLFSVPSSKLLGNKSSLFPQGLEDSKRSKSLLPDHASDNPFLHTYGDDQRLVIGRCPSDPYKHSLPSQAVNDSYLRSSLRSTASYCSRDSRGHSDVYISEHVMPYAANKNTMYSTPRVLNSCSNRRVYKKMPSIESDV
# T2 sequence (Q00960 27-1482, other chains not shown): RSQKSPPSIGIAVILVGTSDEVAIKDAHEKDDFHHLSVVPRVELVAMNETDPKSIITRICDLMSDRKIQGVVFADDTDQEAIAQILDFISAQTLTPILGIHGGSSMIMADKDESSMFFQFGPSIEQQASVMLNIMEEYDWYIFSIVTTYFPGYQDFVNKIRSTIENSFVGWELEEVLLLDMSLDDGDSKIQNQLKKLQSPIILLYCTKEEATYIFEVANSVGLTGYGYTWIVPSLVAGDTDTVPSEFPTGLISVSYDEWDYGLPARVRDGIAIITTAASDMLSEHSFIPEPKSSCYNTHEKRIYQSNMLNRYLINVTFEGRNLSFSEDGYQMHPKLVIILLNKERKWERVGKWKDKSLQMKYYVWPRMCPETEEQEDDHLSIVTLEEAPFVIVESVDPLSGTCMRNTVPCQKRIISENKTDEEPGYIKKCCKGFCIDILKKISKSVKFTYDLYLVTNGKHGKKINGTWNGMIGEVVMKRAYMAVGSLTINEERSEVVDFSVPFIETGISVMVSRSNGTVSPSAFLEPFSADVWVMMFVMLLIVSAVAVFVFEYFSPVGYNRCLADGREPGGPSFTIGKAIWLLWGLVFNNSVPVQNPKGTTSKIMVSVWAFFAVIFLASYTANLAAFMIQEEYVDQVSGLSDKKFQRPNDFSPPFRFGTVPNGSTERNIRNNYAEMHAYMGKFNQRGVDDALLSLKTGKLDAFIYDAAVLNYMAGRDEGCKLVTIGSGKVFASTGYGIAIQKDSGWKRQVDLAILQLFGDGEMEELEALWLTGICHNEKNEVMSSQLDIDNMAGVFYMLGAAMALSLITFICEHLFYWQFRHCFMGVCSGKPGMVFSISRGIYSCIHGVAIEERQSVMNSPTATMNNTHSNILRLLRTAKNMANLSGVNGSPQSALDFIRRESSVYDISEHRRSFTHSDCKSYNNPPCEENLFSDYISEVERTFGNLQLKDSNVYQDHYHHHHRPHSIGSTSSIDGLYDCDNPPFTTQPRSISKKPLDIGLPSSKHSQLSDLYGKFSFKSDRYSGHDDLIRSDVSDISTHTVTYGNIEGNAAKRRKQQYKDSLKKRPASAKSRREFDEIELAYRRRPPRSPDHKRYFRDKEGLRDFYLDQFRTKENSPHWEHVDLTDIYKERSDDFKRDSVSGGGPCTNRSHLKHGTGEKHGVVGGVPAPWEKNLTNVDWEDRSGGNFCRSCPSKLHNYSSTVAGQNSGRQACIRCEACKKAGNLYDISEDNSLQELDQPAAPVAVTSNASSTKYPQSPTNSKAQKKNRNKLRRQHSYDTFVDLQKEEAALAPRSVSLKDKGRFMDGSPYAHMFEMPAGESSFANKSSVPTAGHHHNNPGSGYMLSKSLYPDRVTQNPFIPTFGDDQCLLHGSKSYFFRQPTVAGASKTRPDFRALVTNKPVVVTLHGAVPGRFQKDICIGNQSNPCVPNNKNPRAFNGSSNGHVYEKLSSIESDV
molecule,measurement,setting,value
CC(C(O)c1ccc(O)cc1)N1CCC(Cc2ccccc2)CC1 (stereo not drawn) [ifenprodil],effect on NR2A-mediated current,[1],has no effect
same,decrease of the portion of the ifenprodil-sensitive NMDA current with days in culture,[2],~25%
same,frequency of spontaneous NMDAR EPSCs,[2],significantly reduced
same,suppression of NMDAR current,[2],60%
same,inhibition at 3 µM,"[3]; Rattus norvegicus, Hippocampal neuron, 3 μM, hippocampal neurons 8 div, read-out: inhibition of NMDAR activated ERK",70%
same,degree of ifenprodil-sensitive ERK activation with days in culture,[3]; during neuron maturation,did not change significantly
same,inhibition of NMDA-mediated current,[4]; 3-week-old cultures,20%-30
same,inhibition of NMDA-mediated current,[4]; young neuronal cultures,~70%
same,inhibition of NR2B-mediated current,[5],up to 80%
COc1ccc(S(=O)(=O)N(CCO)c2ccccc2CN(C)C/C=C/c2ccc(Cl)cc2)cc1 [KN-93],phosphorylation of SynGAP,[6],effectively suppressed
same,NMDA-dependent ERK activation,[3]; 5 μM in the incubation media,had no effect
same,bicuculline-induced ERK activation,"[3]; cultured hippocampal neurons, 10 μM bicuculline",altered neither
same,NMDA-induced (NMDAR-dependent) ERK activation,"[3]; cultured hippocampal neurons, 100 μM NMDA",altered neither
same,phosphorylation of CREB,[7],effectively suppressed
B1,binding to NR2B in vitro,[8],bound
B2,binding to NR2B in vitro,[8],did not bind
B3,binding to NR2B in vitro,[8],did not bind
B4,binding to NR2B in vitro,[8],did not bind

# Source: patent US7425614B2, “Neuroprotective therapeutics preventing ERK/MAPK activation through the NMDA receptor” (Children's Medical Center Corporation, priority 2003, dated 2008)
